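Assay format: 96-well plates, 48-hour exposure. GI50 = concentration required for 50% inhibition of growth.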 Active and inactive are the calls of the source. No stated cut-off is given here; in the data, active = GI50 up to about 1.1 µM and inactive = higher.
Columns and labels:
Assay in all cases: growth of human tumour cells (NCI), 48 h
[1] = test system: 786-0
[2] = test system: OVCAR-5
[3] = test system: SF-268
[4] = test system: T47D
[5] = test system: Hs-578T
[6] = test system: IGROV-1
[7] = test system: TK-10
[8] = test system: ACHN
[9] = test system: DU-145
[10] = test system: SNB-75
[11] = test system: RPMI-8226
[12] = test system: MDA-MB-435
[13] = test system: MDA-N
[14] = test system: A549
[15] = test system: SK-MEL-2
[16] = test system: NCI/ADR-RES
[17] = test system: COLO 205
[18] = test system: HOP-92
[19] = test system: OVCAR-8
[20] = test system: HCC 2998
[21] = test system: SN12C
[22] = test system: HT-29
[23] = test system: MOLT-4
[24] = test system: SNB-19
[25] = test system: SK-MEL-28
[26] = test system: K562
[27] = test system: OVCAR-4
[28] = test system: SK-OV-3
[29] = test system: M14
[30] = test system: A498
[31] = test system: UACC-62
[32] = test system: SR
[33] = test system: HOP-62
[34] = test system: NCI-H522
[35] = test system: CAKI-1
[36] = test system: Malme-3M
[37] = test system: LOX IMVI
[38] = test system: MCF7
[39] = test system: NCI-H23
[40] = test system: CCRF-CEM
[41] = test system: HCT-15
[42] = test system: HCT-116
[43] = test system: SW-620
[44] = test system: UACC-257
[45] = test system: PC-3
[46] = test system: EKVX
[47] = test system: U-251
[48] = test system: OVCAR-3
[49] = test system: UO-31
[50] = test system: SF-295
[51] = test system: SK-MEL-5
[52] = test system: SF-539
[53] = test system: RXF 393
[54] = test system: NCI-H460
[55] = test system: KM12
[56] = test system: MDA-MB-231
[57] = test system: HL-60
[58] = test system: NCI-H226

CC(=O)OCC1OC(n2c3c(c(-c4ccco4)c(C#N)c2=S)CCCC3)C(OC(C)=O)C(OC(C)=O)C1OC(C)=O (stereo not drawn)
GI50 [1]: 25.1 µM (inactive) | GI50 [2]: > 31.6 µM (inactive) | GI50 [3]: 13.5 µM (inactive) | GI50 [4]: > 31.6 µM (inactive) | GI50 [5]: 29.4 µM (inactive) | GI50 [6]: 21.9 µM (inactive) | GI50 [7]: 15.7 µM (inactive) | GI50 [8]: 17.8 µM (inactive) | GI50 [9]: > 31.6 µM (inactive) | GI50 [10]: 8.2 µM (inactive) | GI50 [11]: > 100 µM (inactive) | GI50 [12]: > 100 µM (inactive) | GI50 [13]: > 31.6 µM (inactive) | GI50 [14]: 30 µM (inactive) | GI50 [15]: 17.9 µM (inactive) | GI50 [16]: 17.1 µM (inactive) | GI50 [17]: > 31.6 µM (inactive) | GI50 [18]: 7.36 µM (inactive) | GI50 [19]: 31.6 µM (inactive) | GI50 [20]: > 10 µM (inactive) | GI50 [21]: > 31.6 µM (inactive) | GI50 [22]: > 31.6 µM (inactive) | GI50 [23]: > 31.6 µM (inactive) | GI50 [24]: 15.6 µM (inactive) | GI50 [25]: > 31.6 µM (inactive) | GI50 [26]: > 10 µM (inactive) | GI50 [27]: 9.16 µM (inactive) | GI50 [28]: > 10 µM (inactive) | GI50 [29]: > 100 µM (inactive) | GI50 [30]: 12.1 µM (inactive) | GI50 [31]: > 10 µM (inactive) | GI50 [32]: > 31.6 µM (inactive) | GI50 [33]: 13.3 µM (inactive) | GI50 [34]: 16.3 µM (inactive) | GI50 [35]: 29.7 µM (inactive) | GI50 [36]: > 31.6 µM (inactive) | GI50 [37]: > 31.6 µM (inactive) | GI50 [38]: > 76.2 µM (inactive) | GI50 [39]: > 20.2 µM (inactive) | GI50 [40]: > 10 µM (inactive) | GI50 [41]: > 31.6 µM | GI50 [42]: 21.3 µM (inactive) | GI50 [43]: > 100 µM (inactive) | GI50 [44]: > 31.6 µM (inactive) | GI50 [45]: > 10 µM (inactive) | GI50 [46]: 16.6 µM (inactive) | GI50 [47]: > 10 µM (inactive) | GI50 [48]: 23.2 µM (inactive) | GI50 [49]: 22.6 µM (inactive) | GI50 [50]: 13.7 µM (inactive) | GI50 [51]: 16.3 µM (inactive) | GI50 [52]: 17.6 µM (inactive) | GI50 [53]: > 10 µM (inactive) | GI50 [54]: 22.9 µM (inactive) | GI50 [55]: > 31.6 µM (inactive) | GI50 [56]: 29.6 µM (inactive) | GI50 [57]: > 10 µM (inactive) | GI50 [58]: 21.9 µM (inactive)

— ChEMBL document CHEMBL1201862, “PubChem BioAssay data set” (2004)
